Where “and” joins values, the source holds several entries; their conditions need not be identical. Identical values can stand only once. Like-named read-outs stand apart in the source and are kept apart here.

Results on 23 compounds are retold here after US9862679B2, “Potent and selective inhibitors of monoamine transporters; method of making; and use thereof” (priority 2013, dated 2018).

Series [1] deals with dopamine transporter (DAT) (Rattus norvegicus (Rat), UniProt P23977). Briefly: Dopamine Transporter Binding Assay ([3H]WIN 35428, rat striatal membranes).
Series [2] concerns the target norepinephrine transporter (NET) (Rattus norvegicus, UniProt Q63380). The note with it: rat brain membranes. On the procedure:
Binding affinities of all compounds were evaluated at the DAT, SERT, and NET in rat brain membranes using previously described methods:
Norepinephrine Transporter Binding Assay. Brains from male Sprague-Dawley rats weighing 200-225 g (Taconic Labs, Germantown, N.Y.) were removed, frontal cortex dissected and rapidly frozen. Membranes were prepared by homogenizing tissues in 20 volumes (w/v) of 50 mM Tris containing 120 mM NaCl and 5 mM KCl, (pH 7.4 at 25° C.), using a Brinkman Polytron and centrifuged at 50,000×g for 10 min at 4° C. The resulting pellet was resuspended in buffer, recentrifuged and resuspended in buffer to a concentration of 80 mg/mL. Ligand binding experiments were conducted in assay tubes containing 0.5 mL buffer for 60 min at 0-4° C. […] Nonspecific binding was determined using 1 mM desipramine. Incubations were terminated by rapid filtration through Whatman GF/B filters, presoaked in 0.05% polyethylenimine, using a Brandel R48 filtering manifold (Brandel Instruments Gaithersburg, Md.). The filters were washed twice with 3 mL cold buffer and transferred to scintillation vials. Beckman Ready Value (3.0 mL) was added and the vials were counted using a Beckman 6000 liquid scintillation counter (Beckman Coulter Instruments, Fullerton, Calif.). […] All compounds were tested as racemic mixtures.

In series [3] the target is T1, serotonin transporter (SERT) (Rattus norvegicus (Rat), UniProt P31652). As to the kind of experiment: biochemical.
Procedure: (§1) Brains from male Sprague-Dawley rats weighing 200-225 g (Taconic Labs, Germantown, N.Y.) were removed, midbrain dissected and rapidly frozen. […] Nonspecific binding was determined using 10 mM fluoxetine. […] The filters were washed twice with 3 mL cold buffer and transferred to scintillation vials. Beckman Ready Value (3.0 mL) was added and the vials were counted the next day using a Beckman 6000 liquid scintillation counter (Beckman Coulter Instruments, Fullerton, Calif.). […] Data were analyzed with GraphPad Prism software (San Diego, Calif.).
Series [4] deals with T1, serotonin transporter (SERT). The note with it: for Ki: rat brain membranes.
Procedure: as §1
The next series deals with Sigma 1 (Homo sapiens (Human), UniProt Q99720). Briefly: Sigma 1 binding affinity (Table 5).
A further series has as its target Sigma 2 (Homo sapiens (Human), UniProt Q5BJF2). Briefly: Sigma 2 binding affinity (Table 5).
The nature of series [5]: Metabolic stability in mouse plasma. The note with it: mouse plasma, 10 μM, 0 min. Format: in vitro ADME. As to the method: The metabolic stability was evaluated using mouse plasma and mouse liver microsomes.
Setting [6] is: rat brain membranes, Table 1 thioacetamides and sulfinylacetamides, read-out: Ki (nM) ± S.E.M. DAT.
Where [7] appears, read: read-out: Ki (nM) ± S.E.M. NET, Table 1 thioacetamides and sulfinylacetamides.
Where [8] appears, read: read-out: Ki (nM) ± S.E.M. SERT, Table 2 thioethanamines and sulfinylethanamines.
The mark [9] stands for this setting: rat brain membranes, Table 5 piperazinyl derivatives, read-out: DAT Ki ± SEM.
[10] abbreviates: read-out: NET Ki ± SEM, Table 5 piperazinyl derivatives.
[11] abbreviates: read-out: SERT Ki ± SEM, Table 5 piperazinyl derivatives.
[12] abbreviates: Table 5 piperazinyl derivatives, read-out: Sigma 1 Ki ± SEM.
Where [13] appears, read: Table 5 piperazinyl derivatives, read-out: Sigma 2 Ki ± SEM.
The mark [14] stands for this setting: read-out: NET Ki, Table 5, bound in M.

dopamine transporter (DAT), sequence (P23977 whole entry): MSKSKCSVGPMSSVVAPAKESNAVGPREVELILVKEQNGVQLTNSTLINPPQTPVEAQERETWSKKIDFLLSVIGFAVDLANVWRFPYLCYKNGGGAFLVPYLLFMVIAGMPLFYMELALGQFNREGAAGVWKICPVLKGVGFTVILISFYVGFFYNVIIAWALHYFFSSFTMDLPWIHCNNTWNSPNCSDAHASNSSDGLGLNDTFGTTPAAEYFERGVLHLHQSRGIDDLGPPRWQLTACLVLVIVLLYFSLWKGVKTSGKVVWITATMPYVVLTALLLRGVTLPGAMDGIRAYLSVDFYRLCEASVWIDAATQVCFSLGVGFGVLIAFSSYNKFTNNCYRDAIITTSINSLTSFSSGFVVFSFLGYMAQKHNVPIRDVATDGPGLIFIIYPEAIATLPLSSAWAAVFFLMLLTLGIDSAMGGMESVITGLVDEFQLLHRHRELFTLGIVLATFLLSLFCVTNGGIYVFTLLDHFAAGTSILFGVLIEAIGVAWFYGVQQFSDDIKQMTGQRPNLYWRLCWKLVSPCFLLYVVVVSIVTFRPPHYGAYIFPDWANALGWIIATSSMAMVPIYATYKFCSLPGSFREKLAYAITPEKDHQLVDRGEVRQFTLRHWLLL
Sigma 1, sequence (Q99720 whole entry): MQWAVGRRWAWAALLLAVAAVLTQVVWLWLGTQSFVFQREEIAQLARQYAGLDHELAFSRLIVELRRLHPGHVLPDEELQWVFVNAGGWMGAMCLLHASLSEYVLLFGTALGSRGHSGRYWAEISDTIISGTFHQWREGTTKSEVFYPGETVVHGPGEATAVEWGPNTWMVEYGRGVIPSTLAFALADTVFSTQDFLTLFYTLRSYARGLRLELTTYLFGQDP
Sigma 2, sequence (Q5BJF2 whole entry): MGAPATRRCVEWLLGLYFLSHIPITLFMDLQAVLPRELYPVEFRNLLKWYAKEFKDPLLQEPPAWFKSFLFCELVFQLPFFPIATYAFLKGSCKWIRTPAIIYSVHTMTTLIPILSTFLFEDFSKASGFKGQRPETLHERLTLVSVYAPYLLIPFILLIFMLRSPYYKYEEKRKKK
norepinephrine transporter (NET), sequence (Q63380 1-617): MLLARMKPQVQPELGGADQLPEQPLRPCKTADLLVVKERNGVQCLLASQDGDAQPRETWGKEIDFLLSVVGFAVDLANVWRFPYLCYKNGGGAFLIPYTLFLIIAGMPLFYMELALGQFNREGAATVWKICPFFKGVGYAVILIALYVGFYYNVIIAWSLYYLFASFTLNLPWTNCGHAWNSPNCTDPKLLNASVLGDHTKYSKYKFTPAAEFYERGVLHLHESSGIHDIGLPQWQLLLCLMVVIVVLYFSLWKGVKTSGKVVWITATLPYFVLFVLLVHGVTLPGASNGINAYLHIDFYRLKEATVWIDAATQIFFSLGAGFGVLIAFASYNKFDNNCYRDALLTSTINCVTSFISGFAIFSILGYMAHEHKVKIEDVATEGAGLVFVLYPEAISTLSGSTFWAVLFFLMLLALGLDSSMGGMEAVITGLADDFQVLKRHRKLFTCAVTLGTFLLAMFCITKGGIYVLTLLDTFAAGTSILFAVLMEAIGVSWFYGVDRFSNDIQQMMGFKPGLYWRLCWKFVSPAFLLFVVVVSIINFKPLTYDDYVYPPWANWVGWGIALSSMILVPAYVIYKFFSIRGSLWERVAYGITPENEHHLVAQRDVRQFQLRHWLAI
T1 sequence (P31652 whole entry): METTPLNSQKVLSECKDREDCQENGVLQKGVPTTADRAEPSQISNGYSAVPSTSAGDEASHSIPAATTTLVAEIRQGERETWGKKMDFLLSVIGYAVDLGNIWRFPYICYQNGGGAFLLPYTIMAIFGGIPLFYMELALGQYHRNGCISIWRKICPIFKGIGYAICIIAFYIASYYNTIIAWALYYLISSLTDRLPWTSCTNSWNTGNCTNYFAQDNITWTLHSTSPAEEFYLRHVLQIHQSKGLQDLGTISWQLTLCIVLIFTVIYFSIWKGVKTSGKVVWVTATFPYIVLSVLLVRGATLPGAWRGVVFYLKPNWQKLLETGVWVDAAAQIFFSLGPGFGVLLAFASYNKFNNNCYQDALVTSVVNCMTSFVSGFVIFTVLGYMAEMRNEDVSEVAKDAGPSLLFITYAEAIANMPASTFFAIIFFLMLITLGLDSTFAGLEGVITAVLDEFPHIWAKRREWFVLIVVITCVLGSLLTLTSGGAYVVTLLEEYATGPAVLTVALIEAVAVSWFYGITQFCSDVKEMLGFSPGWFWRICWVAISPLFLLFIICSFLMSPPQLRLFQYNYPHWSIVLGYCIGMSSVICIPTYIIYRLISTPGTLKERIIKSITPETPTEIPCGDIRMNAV

In general, Ki refers to the dissociation constant of the complex between target and ligand, obtained from inhibition or displacement. For the compound `NC(=O)C[S+]([O-])C(c1cccc(F)c1)c1cccc(F)c1` (stereo not shown) [Compound 3c, 2-((Bis(3-fluorophenyl)methyl)sulfinyl)acetamide], the Ki in series [1] (setting [6]) was 6180 nM; in series [2] (setting [7]), more than 100000 nM; in series [3], more than 100000 nM.
As to `NCCSC(c1ccc(Br)cc1)c1ccc(Br)cc1` [Compound 4c, 2-((bis(4-bromophenyl)methyl)thio)ethan-1-amine], the “improvement in DAT affinity, halogen-substituted v. unsubstituted analogue” value in series [1] is 3 fold. Also, the Ki was 488 ± 52.2 nM in series [1] (read-out: Ki (nM) ± S.E.M. DAT); 26 nM and 26.3 nM in series [4] (setting [8]); less than 30 nM in series [3]. Moreover, the “increase in SERT affinity, halogen-substituted v. unsubstituted analogue” value in series [4] (2i v. 2g (Table 1), 4c v. 4a (Table 2)) is 9 fold.
For the compound `Fc1ccc(C(SCCN2CCN(CCCc3ccccc3)CC2)c2ccc(F)cc2)cc1` [Compound 7b, 1-(2-((Bis(4-fluorophenyl)methyl)thio)ethyl)-4-(3-phenylpropyl)piperazine], the Ki in series [1] (setting [9]) was 4.5 ± 0.34 nM; in series [2] (setting [10]) it was 1890 ± 116 nM; at Sigma 1, 59.5 ± 5.04 nM; on Sigma 2 it was 28.5 ± 2.14 nM; in series [4] (setting [11]) it was 285 nM.
Turning to `[O-][S+](CCN1CCN(CCCc2ccccc2)CC1)C(c1ccc(F)cc1)c1ccc(F)cc1` (stereo not shown) [Compound 8b, 1-(2-((Bis(4-fluorophenyl)methyl)sulfinyl)ethyl)-4-(3-phenylpropyl)piperazine], the Ki came out at 2.92 ± 0.38 nM in series [1] (read-out: DAT Ki ± SEM), 4280 ± 343 nM in series [2] (setting [10]), 42.4 ± 5.1 nM at Sigma 1 (setting [12]) and 25.9 ± 1.11 nM at Sigma 2 (setting [13]).
Regarding `Cc1ccc(C(c2ccc(C)cc2)[S+]([O-])CC(N)=O)cc1` (stereo not shown) [Compound 3a, 2-((Di-p-tolylmethyl)sulfinyl)acetamide], the Ki in series [1] (setting [6]) was 12700 nM; in series [2] (setting [7]) it was more than 100000 nM; in series [3], more than 100000 nM.
As to `CC(O)CN1CCN(CC[S+]([O-])C(c2ccc(F)cc2)c2ccc(F)cc2)CC1` (racemic) [Compound 10d, 1-(4-(2-((Bis(4-fluorophenyl)methyl)sulfinyl)ethyl)piperazin-1-yl)propan-2-ol], the Ki was more than 100000 nM in series [2] (setting [14]), 1010 ± 134 nM at Sigma 1 (setting [12]), 1800 ± 264 nM on Sigma 2 (setting [13]) and 50300 ± 5760 nM in series [4] (setting [11]).
On to `O=C(C[S+]([O-])C(c1ccccc1)c1ccccc1)N1CCN(CCCc2ccccc2)CC1` (stereo not shown) [Compound 12a, 2-(Benzhydrylsulfinyl)-1-(4-(3-phenylpropyl)piperazin-1-yl)ethan-1-one], for which the inhibitory constant (Ki) in series [1] (setting [9]) is 33 ± 2.83 nM; on Sigma 1 (setting [12]), 1430 ± 21.1 nM; at Sigma 2 (setting [13]), 469 ± 66.4 nM; in series [4] (setting [11]), 15200 ± 1100 nM.
For the compound `NC(=O)C[S+]([O-])C(c1ccccc1)c1cccc(Br)c1` (stereo not shown) [Compound 3e, 2-(((3-Bromophenyl)(phenyl)methyl)sulfinyl)acetamide], the Ki is 550 ± 7.4 nM in series [1] (setting [6]), more than 100000 nM in series [2] (setting [7]) and more than 100000 nM in series [3].
In the case of `c1ccc(CCCN2CCN(CCSC(c3ccccc3)c3ccccc3)CC2)cc1` [Compound 7a, 1-(2-(Benzhydrylthio)ethyl)-4-(3-phenylpropyl)piperazine], the Ki turned out to be 3.58 ± 0.16 nM in series [1] (setting [9]); 988 nM in series [2] (setting [10]); 19.9 ± 2.59 nM on Sigma 1; 16.8 ± 2.15 nM on Sigma 2; 1050 ± 152 nM in series [4] (setting [11]).
For `O=C(CSC(c1ccc(Br)cc1)c1ccc(Br)cc1)NCC1CC1` [Compound 2q, 2-((Bis(4-bromophenyl)methyl)thio)-N-(cyclopropylmethyl)acetamide], the Ki in series [1] (setting [6]) is 993 ± 139 nM; in series [2] (setting [7]), more than 100000 nM; in series [3], 7270 nM.
Turning to `CC(O)CN1CCN(CC[S+]([O-])C(c2ccccc2)c2ccccc2)CC1` (racemic) [Compound 10a, 1-(4-(2-(Benzhydrylsulfinyl)ethyl)piperazin-1-yl)propan-2-ol], the Ki in series [1] (read-out: DAT Ki ± SEM) is 636 ± 14.7 nM; in series [2] (setting [14]) it was more than 100000 nM; on Sigma 1 (setting [12]), 861 ± 109 nM; at Sigma 2 (setting [13]), 3930 ± 208 nM; in series [4] (read-out: SERT Ki, Table 5, bound in M), more than 100000 nM.
`[O-][S+](CCN1CCN(CCCc2ccccc2)CC1)C(c1ccccc1)c1ccccc1` (stereo not shown) [Compound 8a, 1-(2-(Benzhydrylsulfinyl)ethyl)-4-(3-phenylpropyl)piperazine]: the Ki in series [1] (read-out: DAT Ki ± SEM) came to 3.17 ± 0.11 nM; in series [2] (setting [10]) it was 5540 ± 808 nM; on Sigma 1 it was 116 ± 1.24 nM; at Sigma 2, 20.5 ± 0.43 nM; in series [4] (setting [11]), 7220 ± 944 nM.
For the compound `CC(O)CN1CCN(CCSC(c2ccc(F)cc2)c2ccc(F)cc2)CC1` (racemic) [Compound 9d, 1-(4-(2-((Bis(4-fluorophenyl)methyl)thio)ethyl)piperazin-1-yl)propan-2-ol], the inhibition constant (Ki) on Sigma 1 (setting [12]) was determined as 4.03 ± 0.22 nM; on Sigma 2 (setting [13]) it was 84.7 ± 11.9 nM; in series [4] (setting [11]), 1770 ± 234 nM.
Regarding `CC(O)CN1CCN(CCSC(c2ccccc2)c2ccccc2)CC1` (racemic) [Compound 9a, 1-(4-(2-(Benzhydrylthio)ethyl)piperazin-1-yl)propan-2-ol], the inhibition constant (Ki) amounted to 49.6 ± 4.31 nM in series [1] (setting [9]); 44500 ± 2400 nM in series [2] (setting [10]); 0.94 ± 0.07 nM at Sigma 1; 92.6 ± 13.5 nM on Sigma 2; 26700 ± 2630 nM in series [4] (setting [11]).
Regarding `NC(=O)C[S+]([O-])C(c1cccc(Cl)c1)c1cccc(Cl)c1` (stereo not shown) [Compound 3d, 2-((Bis(3-chlorophenyl)methyl)sulfinyl)acetamide], the Ki in series [2] (setting [7]) and in series [3] was more than 100000 nM throughout.
For the compound `[O-][S+](CCN1CCN(CC(O)Cc2ccccc2)CC1)C(c1ccc(F)cc1)c1ccc(F)cc1` (racemic) [Compound 10j, 1-(4-(2-((Bis(4-fluorophenyl)methyl)sulfinyl)ethyl)piperazin-1-yl)-3-phenylpropan-2-ol], the Ki in series [1] (setting [9]) was determined as 2.53 ± 0.25 nM; on Sigma 1, 336 ± 42.2 nM; on Sigma 2 (setting [13]), 176 ± 26.3 nM; in series [4] (setting [11]), 4610 ± 562 nM.
`NCCSC(c1ccc(Cl)cc1)c1ccc(Cl)cc1` [Compound 4b, 2-((bis(4-chlorophenyl)methyl)thio)ethan-1-amine]: the inhibition constant (Ki) in series [4] (setting [8]) is 30 nM and 29.9 nM; in series [3] it was less than 30 nM.
As to `CCN(CC)CCOC(=O)c1ccc(N)cc1` [Procaine, reference compound], the “Metabolic stability, Plasma (% remaining)” value in series [5] is 100%.
Turning to `[O-][S+](CCN1CCN(CC(O)Cc2ccccc2)CC1)C(c1ccccc1)c1ccccc1` (racemic) [Compound 10g, 1-(4-(2-(Benzhydrylsulfinyl)ethyl)piperazin-1-yl)-3-phenylpropan-2-ol], the Ki in series [1] (setting [9]) worked out at 3.43 ± 0.5 nM; in series [2] (setting [10]), 25300 ± 2040 nM; on Sigma 1 (setting [12]) it was 983 ± 103 nM; on Sigma 2 (setting [13]) it was 316 ± 25.2 nM; in series [4] (setting [11]), 21700 ± 2020 nM.
With `OC(Cc1ccccc1)CN1CCN(CCSC(c2ccc(F)cc2)c2ccc(F)cc2)CC1` (racemic) [Compound 9j, 1-(4-(2-((Bis(4-fluorophenyl)methyl)thio)ethyl)piperazin-1-yl)-3-phenylpropan-2-ol], the Ki was determined as 1950 ± 227 nM in series [2] (setting [10]), 95.4 ± 13.4 nM at Sigma 1, 38.6 ± 0.94 nM on Sigma 2 and 213 nM in series [4] (setting [11]).
Take `O=C(CSC(c1ccccc1)c1ccccc1)NCC1CC1` [Compound 2o, 2-(Benzhydrylthio)-N-(cyclopropylmethyl)acetamide]: the Ki in series [1] (setting [6]) is 13900 nM; in series [2] (setting [7]) it was more than 100000 nM; in series [3], 20900 nM.
For the compound `OC(Cc1ccccc1)CN1CCN(CCSC(c2ccccc2)c2ccccc2)CC1` (racemic) [Compound 9g, 1-(4-(2-(Benzhydrylthio)ethyl)piperazin-1-yl)-3-phenylpropan-2-ol], the Ki amounted to 2.54 ± 0.23 nM in series [1] (setting [9]), 1430 ± 118 nM in series [2] (setting [10]), 30 ± 3.81 nM on Sigma 1 (setting [12]) and 31.8 ± 3.63 nM on Sigma 2 (setting [13]).
Regarding `O=C(CSC(c1ccc(F)cc1)c1ccc(F)cc1)NCC1CC1` [Compound 2p, 2-((Bis(4-fluorophenyl)methyl)thio)-N-(cyclopropylmethyl)acetamide], the figures for the Ki in series [1] (setting [6]), in series [2] (setting [7]) and in series [3] were 6860 nM, 57600 nM and 35400 nM, respectively.
